# Data as given in US4987126A, “3'-deamino-4'-deoxy-4'-amino anthracyclines” (Farmitalia Carlo Erba S.r.l., priority 1988, dated 1991).
# Experiments:
# Lewis Lung ca. = assay: Effect against Lewis Lung ca.; format: in vivo, mouse (C57 B1/6 mice); conditions: for tumor inhibition / T/C (median survival time of treated mice/median survival time of control × 100): C57 B1/6 mice, 10^5 cells i.v., i.v. once a week for three weeks from day 1, optimal dose (mg/Kg): DXR 6-7.5, DNR 8, Ia 7.5, IIa 4; for tumor inhibition: 1 week after last treatment; for tumor growth inhibition, Lewis lung ca. (in words) / survival time of mice, Lewis lung ca. (in words): model sensitive to DXR; for survival time of mice, Lewis lung ca. (in words): versus DXR
# Description: (§1) The compounds were tested by dissolving them, as hydrochlorides, in water.
# ^a experiment was performed in C57 B1/6 mice, inoculated i.v. with
# (§2) ^b treatment i.v. was carried out once a week for three weeks,
# starting on day 1 after tumor transplant
# (§3) ^c percentage of tumor growth inhibition in respect to control was
# (§4) calculated 1 week after the last treatment
# ^d median survival time of treated mice/median survival time of […]
# murine Gross leukemia = assay: Effect against murine Gross leukemia; format: in vivo, murine (C3H/He mice); conditions: for T/C % (median survival time of treated mice/median survival time of control × 100): Gross leukemia, C3H/He mice, 2 × 10^6 cells i.v., single i.v. dose day 1 at optimal dose (mg/Kg): DNR 15, DXR 13-16.9, Ib 65, Ia 12.5, IIa 4, Id 6.7, IIc 1; for Toxic death: Gross leukemia-bearing C3H/He mice, autoptic findings, at optimal dose (mg/Kg): DNR 15, DXR 13-16.9, Ib 65, Ia 12.5, IIa 4, Id 6.7, IIc 1; for activity on increase of the survival time of mice, Gross leukemia (in words): mouse, in vivo; for potency on Gross leukemia (in words): among all compounds tested
# Description: (§5) The antileukemic activity of Ia and IIa, in comparison with DXR (doxorubicin) and DNR (daunorubicin), was tested against murine P388 and Gross Leukemias.
# as §1
# ^a Experiments were performed in C3H/He mice, inoculated i.v. with 2
# (§6) ^b Single i.v. dose on day 1 after tumor inoculum.
# (§7) ^c Median survival time of treated mice/median survival time of
# ^3 Evaluated on the basis of autoptic findings.
# [1] = test system: Human Colon adenocarcinoma (LoVo); assay: Effect against Human Colon adenocarcinoma (LoVo); format: in vivo, human (tumor transplanted in Swissnude mice); conditions: for tumor inhibition: i.v. once a week for three weeks, 1 week after last treatment, optimal dose (mg/Kg): DNR 8 tox, DXR 6, Ia 7.5, IIa 4-5; for activity on LoVo tumor (in words): in vivo
# Description: as §1
# ^1 experiment was performed in Swissnude mice, transplanted s.c. with
# as §2
# (§8) starting when the tumor was palpable
# as §3, §4
# P388 ascitic leukemia = assay: Effect against P388 ascitic leukemia; format: in vivo, murine (CDF1 mice); conditions: for T/C % (median survival time of treated mice/median survival time of control × 100): P388, CDF1 mice, 10^6 cells i.v., single i.v. dose day 1 at optimal dose (mg/Kg): DNR 22.5, DXR 16.9, Ia 19.5, IIa 4; for Toxic death: P388-bearing CDF1 mice, autoptic findings, at optimal dose (mg/Kg): DNR 22.5, DXR 16.9, Ia 19.5, IIa 4
# Description: as §5, §1
# ^a Experiments were performed in CDF1 mice, inoculated i.v. with
# as §6, §7
# ^d Evaluated on the basis of autoptic findings.
# [2] = test system: Human Colon ca. (LoVo/DXR); assay: Effect against Human Colon ca. (LoVo/DXR); format: in vivo, human (tumor transplanted in Swissnude mice); conditions: i.v. once a week for three weeks, 1 week after last treatment; optimal dose (mg/Kg): DXR 6, Ia 7.5, IIa 4
# Description: as §1
# (§9) ^a experiment was performed in Swissnude mice, transplanted s.c. with
# as §2, §8, §3, §4
# [3] = test system: human lung adenocarcinoma (A549); assay: Effect against human lung adenocarcinoma (A549); format: in vivo, human (tumor transplanted in Swissnude mice); conditions: i.v. once a week for three weeks, 1 week after last treatment; optimal dose (mg/Kg): DXR 6, Ia 9, IIa 5
# Description: as §1, §9, §2, §8, §3, §4
# [4] = test system: Murine Mammary ca. (MTV/DXR); assay: Effect against Murine Mammary ca. (MTV/DXR); format: in vivo; conditions: C3H/He mice, i.v. once a week for three weeks, optimal dose (mg/Kg): DXR 6, IIa 5; for tumor inhibition: 1 week after last treatment
# Description: as §1
# ^a experiment was carried out in C3H/He mice, transplanted s.c. with
# as §2, §8, §3, §4
# solid tumors = assay: evaluation against different human and solid tumors (Tables 4-8, overall); format: in vivo, human and murine; conditions: IIa versus Ia
# Description: as §1
SMILES,tumor inhibition (Lewis Lung ca.),T/C (median survival time of treated mice/median survival time of control × 100) (Lewis Lung ca.),T/C % (median survival time of treated mice/median survival time of control × 100) (murine Gross leukemia),Toxic death (murine Gross leukemia),"activity on increase of the survival time of mice, Gross leukemia (in words) (murine Gross leukemia)","toxicity mark at the dose ([1]; 8 mg/Kg i.v. once a week for three weeks, Swissnude mice)",tumor inhibition [1],T/C % (median survival time of treated mice/median survival time of control × 100) (P388 ascitic leukemia) [%],Toxic death (P388 ascitic leukemia),"tumor growth inhibition, Lewis lung ca. (in words) (Lewis Lung ca.)","survival time of mice, Lewis lung ca. (in words) (Lewis Lung ca.)",tumor inhibition [2] [%],tumor inhibition [3] [%],activity on LoVo tumor (in words) [1],potency on Gross leukemia (in words) (murine Gross leukemia),tumor inhibition [4] [%],T/C [4] [%],potency and activity against all solid tumors tested (in words) (solid tumors)
"COc1cccc2c1C(=O)c1c(O)c3c(c(O)c1C2=O)C[C@@](O)(C(C)=O)C[C@@H]3O[C@H]1C[C@H](N)[C@H](O)[C@H](C)O1 [DNR, daunorubicin, reference compound]",47%,135%,200%,0/10,active,tox,54%,222,0/10,–,–,–,–,–,–,–,–,–
"CC(=O)[C@]1(O)Cc2c(O)c3c(c(O)c2[C@@H](O[C@H]2CC[C@H](N)[C@H](C)O2)C1)C(=O)c1ccccc1C3=O [Ia, 4-demethoxy-3'-deamino-4'-deoxy-4'-aminodaunorubicin]",7%,104%,240%,0/10,–,–,11%,200,0/10,inactive,inactive,13,13,completly inactive,–,–,–,–
"C[C@@H]1O[C@@H](O[C@H]2C[C@](O)(C(=O)CO)Cc3c(O)c4c(c(O)c32)C(=O)c2ccccc2C4=O)CC[C@H]1N [IIc, 4-demethoxy-3'-deamino-4'-deoxy-4'-epi-aminodoxorubicin]",–,–,217%,0/10,–,–,–,–,–,–,–,–,–,–,most potent,–,–,–
"COc1cccc2c1C(=O)c1c(O)c3c(c(O)c1C2=O)C[C@@](O)(C(=O)CO)C[C@@H]3O[C@H]1CC[C@H](N)[C@H](C)O1 [Id, 3'-deamino-4'-deoxy-4'-aminodoxorubicin]",–,–,200%,0/10,–,–,–,–,–,–,–,–,–,–,–,–,–,–
"COc1cccc2c1C(=O)c1c(O)c3c(c(O)c1C2=O)C[C@@](O)(C(=O)CO)C[C@@H]3O[C@H]1C[C@H](N)[C@H](O)[C@H](C)O1 [DXR, doxorubicin, reference compound]",85-95%,148-169%,200-250%,0/10,active,–,62%,225,0/10,sensitive to DXR,–,30,44,–,–,52,84,–
"CC(=O)[C@]1(O)Cc2c(O)c3c(c(O)c2[C@@H](O[C@H]2CC[C@@H](N)[C@H](C)O2)C1)C(=O)c1ccccc1C3=O [Compound IIa, 4-demethoxy-3'-deamino-4'-deoxy-4'-epi-aminodaunorubicin]",84%,122%,160%,0/10,–,–,54-56%,225,0/10,"active, as DXR",less active,41,49,same activity than LoVo/DXR,most potent,44,146,more potent and active than Ia
"COc1cccc2c1C(=O)c1c(O)c3c(c(O)c1C2=O)C[C@@](O)(C(C)=O)C[C@@H]3O[C@H]1CC[C@H](N)[C@H](C)O1 [Ib, 3'-deamino-4'-deoxy-4'-aminodaunorubicin]",–,–,240%,0/10,–,–,–,–,–,–,–,–,–,–,–,–,–,–
